Assay results reported in ChEMBL document CHEMBL4354815, “Fibrinolysis Inhibitors: Potential Drugs for the Treatment and Prevention of Bleeding” (J Med Chem, 2020).

What was measured:
Plasma kallikrein = Plasma kallikrein (Homo sapiens, UniProt P03952); assay: Inhibition of human plasma kallikrein preincubated for 15 mins followed by H-Pro-Phe-Arg-AMC substrate addition and measured after 30 mins by fluorescence method
Plasminogen [1] = biological target: T1, Plasminogen (Homo sapiens, UniProt P00747); assay: Inhibition of human plasmin preincubated for 15 mins followed by MeOSuc-Ala-Phe-Lys-AMC substrate addition and measured after 30 mins by fluorescence method
Coagulation factor XI = Coagulation factor XI (Homo sapiens, UniProt P03951); assay: Inhibition of human factor 11a preincubated for 15 mins followed by Boc-Glu (OBzl) -Ala-Arg-AMC and measured after 30 mins by fluorescence method
Plasma = assay: Anti-fibrinolytic activity in 5% human plasma in presence of fibrinogen by spectrophotometric method; type: functional, cell-free
Plasminogen [2] = biological target: T1, Plasminogen; assay: Inhibition of microplasmin (unknown origin) expressed in Pichia pastoris preincubated for 10 mins followed by S2251 substrate addition
Plasminogen [3] = biological target: T1, Plasminogen; assay: Inhibition of plasmin (unknown origin) assessed as reduction in amidolytic activity using S-2251 as the substrate after 4 mins
[4] = Drug level in human serum at 100 mg/kg, iv measured after 3 to 4 hrs; type: ADME, organism-based; conditions: in vivo
[5] = Half life in human; type: ADME
[6] = Initial serum concentration in human at 100 mg/kg, iv; type: ADME, organism-based
[7] = Plasma concentration in human at 100 mg/kg, po measured within 2 to 3 hrs; type: ADME, organism-based; conditions: in vivo
[8] = compound: CC[C@@H](C)[C@@H](N)C(=O)N[C@@H](Cc1ccccc1)C(=O)N[C@@H](CCCCN)C(=O)Nc1ccc([N+](=O)[O-])cc1; assay: (§1) Inhibition of human plasmin assessed as km by Lineweaver-burk method
[9] = compound: NCCCC[C@H](NC(=O)[C@H](Cc1ccccc1)NC(=O)[C@@H]1CCC(=O)N1)C(=O)Nc1ccc([N+](=O)[O-])cc1; assay: as §1

Chain of Coagulation factor XI (P03951 19-387 limits assumed): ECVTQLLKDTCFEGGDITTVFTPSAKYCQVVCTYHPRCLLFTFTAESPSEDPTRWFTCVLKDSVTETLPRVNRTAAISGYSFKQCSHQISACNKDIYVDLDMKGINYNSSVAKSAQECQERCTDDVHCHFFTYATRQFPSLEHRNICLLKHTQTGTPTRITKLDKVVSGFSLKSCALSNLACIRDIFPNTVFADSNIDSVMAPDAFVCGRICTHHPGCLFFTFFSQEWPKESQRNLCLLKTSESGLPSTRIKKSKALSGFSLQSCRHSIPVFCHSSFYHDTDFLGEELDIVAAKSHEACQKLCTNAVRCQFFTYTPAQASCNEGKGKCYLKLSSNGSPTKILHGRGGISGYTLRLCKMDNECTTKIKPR
Chain of Coagulation factor XI (P03951 388-625 limits assumed): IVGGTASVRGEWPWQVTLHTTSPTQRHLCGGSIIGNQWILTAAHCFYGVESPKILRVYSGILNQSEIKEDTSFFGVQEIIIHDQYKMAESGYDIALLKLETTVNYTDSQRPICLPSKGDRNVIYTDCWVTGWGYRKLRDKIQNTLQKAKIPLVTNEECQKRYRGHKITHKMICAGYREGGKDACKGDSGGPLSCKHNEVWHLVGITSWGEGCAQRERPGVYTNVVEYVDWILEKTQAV
Chain of Plasma kallikrein (P03952 20-390 limits assumed): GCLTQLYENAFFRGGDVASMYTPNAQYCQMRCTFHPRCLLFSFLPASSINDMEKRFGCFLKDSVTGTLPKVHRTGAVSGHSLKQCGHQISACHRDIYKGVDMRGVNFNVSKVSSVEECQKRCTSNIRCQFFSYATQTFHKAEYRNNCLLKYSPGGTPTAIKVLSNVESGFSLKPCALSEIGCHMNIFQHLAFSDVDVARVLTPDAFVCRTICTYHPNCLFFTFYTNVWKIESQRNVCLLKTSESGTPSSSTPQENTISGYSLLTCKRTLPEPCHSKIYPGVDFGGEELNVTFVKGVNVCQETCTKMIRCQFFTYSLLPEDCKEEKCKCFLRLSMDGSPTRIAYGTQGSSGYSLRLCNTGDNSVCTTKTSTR
Chain of Plasma kallikrein (P03952 391-638 limits assumed): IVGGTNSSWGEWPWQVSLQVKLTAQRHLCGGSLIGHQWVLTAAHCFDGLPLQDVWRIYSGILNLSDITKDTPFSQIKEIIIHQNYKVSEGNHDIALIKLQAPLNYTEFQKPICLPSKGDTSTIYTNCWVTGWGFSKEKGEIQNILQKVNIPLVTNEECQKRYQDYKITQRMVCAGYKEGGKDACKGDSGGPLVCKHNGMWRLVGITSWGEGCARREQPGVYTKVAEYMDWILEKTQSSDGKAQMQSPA

With `CNC(=O)c1ccc(NC(=O)[C@H](Cc2ccc(-c3cc4[nH]cc(C(=O)O)c(=O)c4cc3C)cc2)NC(=O)[C@H]2CC[C@H](CN)CC2)cc1Cl` the IC50 (Plasma kallikrein) was 8.5 nM, the IC50 (Plasminogen [1]) was 1 nM and the IC50 (Coagulation factor XI) was 21.5 nM.

`O=c1cc(C2CCNCC2)n2nc3ccc(F)c(-c4ccccc4)c3c2[nH]1` gave an IC50 (Plasma) of 11 nM.

`CCCCCCCCNC(=O)[C@H](Cc1ccc(OCc2ccc3ccccc3n2)cc1)NC(=O)[C@H]1CC[C@H](CN)CC1` showed an IC50 (Plasminogen [2]) of 380 nM.

In the case of `CC[C@@H](C)[C@@H](N)C(=O)N[C@@H](Cc1ccccc1)C(=O)N[C@@H](CCCCN)C(=O)Nc1ccc(C(=O)c2ccccc2)cc1`, the IC50 (Plasminogen [3]) is reported as 69000 nM.

With `NCCCCCC(=O)O` [AMINOCAPROIC ACID] the Drug uptake [4] was 0.035 mg/mL, the half-life [5] was 1.33 h and the C0 [6] was 1500 µg/mL. The Cp [7] was 300 µg/mL.

`O=C(c1cnn2c(C3CCNCC3)cc(=O)[nH]c12)C1CC1` gave an IC50 (Plasma) of 8 nM.

`C#Cc1cccc2nn3c(C4CCNCC4)cc(=O)[nH]c3c12` gave an IC50 (Plasma) of 10 nM.

`CCC(C)C(=O)c1cnn2c(C3CCNCC3)cc(=O)[nH]c12` (stereo unspecified) gave an IC50 (Plasma) of 8 nM.

With `NCCCC[C@H](NC(=O)[C@H]1CC[C@H](CN)CC1)C(=O)NCOc1ccc(C(=O)c2ccccc2)cc1` the IC50 (Plasminogen [3]) was 660000 nM.

For `CCCCCCCCNC(=O)[C@H](Cc1ccc(OCc2ccncc2)cc1)NC(=O)[C@H]1CC[C@H](CN)CC1`, the IC50 (Plasminogen [2]) was 240 nM.

With `CCCc1noc(-c2c(C)nn3c(C4CCNCC4)cc(=O)[nH]c23)n1` the IC50 (Plasma) was 6 nM.

`Cc1cc2nc(C(C)C)[nH]c2cc1-c1ccc(C[C@H](NC(=O)[C@H]2CC[C@H](CN)CC2)C(=O)Nc2ccc(-c3nnc(C(F)(F)C(F)(F)C(=O)O)[nH]3)cc2)cc1` showed an IC50 (Plasma kallikrein) of 7.2 nM, an IC50 (Plasminogen [1]) of 0.87 nM and an IC50 (Coagulation factor XI) of 0.34 nM.

B1: Plasminogen (Homo sapiens), P00747 (protein)
chain: MEHKEVVLLLLLFLKSGQGEPLDDYVNTQGASLFSVTKKQLGAGSIEECAAKCEEDEEFTCRAFQYHSKEQQCVIMAENRKSSIIIRMRDVVLFEKKVYLSECKTGNGKNYRGTMSKTKNGITCQKWSSTSPHRPRFSPATHPSEGLEENYCRNPDNDPQGPWCYTTDPEKRYDYCDILECEEECMHCSGENYDGKISKTMSGLECQAWDSQSPHAHGYIPSKFPNKNLKKNYCRNPDRELRPWCFTTDPNKRWELCDIPRCTTPPPSSGPTYQCLKGTGENYRGNVAVTVSGHTCQHWSAQTPHTHNRTPENFPCKNLDENYCRNPDGKRAPWCHTTNSQVRWEYCKIPSCDSSPVSTEQLAPTAPPELTPVVQDCYHGDGQSYRGTSSTTTTGKKCQSWSSMTPHRHQKTPENYPNAGLTMNYCRNPDADKGPWCFTTDPSVRWEYCNLKKCSGTEASVVAPPPVVLLPDVETPSEEDCMFGNGKGYRGKRATTVTGTPCQDWAAQEPHRHSIFTPETNPRAGLEKNYCRNPDGDVGGPWCYTTNPRKLYDYCDVPQCAAPSFDCGKPQVEPKKCPGRVVGGCVAHPHSWPWQVSLRTRFGMHFCGGTLISPEWVLTAAHCLEKSPRPSSYKVILGAHQEVNLEPHVQEIEVSRLFLEPTRKDIALLKLSSPAVITDKVIPACLPSPNYVVADRTECFITGWGETQGTFGAGLLKEAQLPVIENKVCNRYEFLNGRVQSTELCAGHLAGGTDSCQGDSGGPLVCFEKDKYILQGVTSWGLGCARPNKPGVYVRVSRFVTWIEGVMRNN
Molecule B1 has a Km [8] of 20 µM and a Km [9] of 300 µM.
